Reference: article PMC12670395, “Structural Rationalization of IPMK Inhibitor Potency” (Journal of Medicinal Chemistry, 2025)
“And” between values parts separate entries of the source, which are not always exact repeats. Identical values can stand only once.

Assays:
human IPMK [1] = molecular target: T1, human IPMK (Homo sapiens, UniProt Q8NFU5); test: IPMK kinase activity assay (33P-radiolabeled HPLC assay); format: biochemical; conditions: 33P-1,3,4,5-IP4 to InsP5, 1.0 mM ATP, 2 nM IPMK; mean with standard error, n = 3 (compound 1 n = 5)
T1 sequence (Q8NFU5 with tags, fused parts or gaps): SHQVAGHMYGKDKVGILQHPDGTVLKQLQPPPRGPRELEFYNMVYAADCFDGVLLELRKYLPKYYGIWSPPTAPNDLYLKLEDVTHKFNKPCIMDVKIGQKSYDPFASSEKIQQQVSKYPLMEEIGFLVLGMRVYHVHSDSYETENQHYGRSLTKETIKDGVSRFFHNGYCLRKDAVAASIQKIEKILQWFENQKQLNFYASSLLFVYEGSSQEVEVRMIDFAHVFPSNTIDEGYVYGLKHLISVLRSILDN
Protocol: (§1) For all enzyme assays, a serial dilution of the enzyme was performed in the kinase assay to determine the linear range of the enzyme concentration to be used.
(§2) We prepared ^33P-1,3,4,5-IP4 by incubating 1,4,5-IP3, ^33P-ATP, and IPMK, isolated the product with a 30 K d MW cutoff filter. Each reaction contained trace amounts (4,00,000 disintegrations per minute (dpm)) of ^33P-1,3,4,5-IP4 in a 100 μL incubation containing 20 mM HEPES (pH 7.2), 100 mM KCl, 3.5 mM MgCl2, 20 μM EDTA, 1.0 mM ATP, 1 μM 1,3,4,5-IP4, plus test compound in DMSO (or vehicle control) plus 2 nM IPMK. Assays were analyzed by HPLC, using a PartiSphere SAX 120, 5 μm, 4.6 × 125 mm HPLC column with a 250 μL injection volume. The elution gradient was generated by mixing Buffer A (1 mm Na2EDTA) with Buffer B (Buffer A plus 2.5 M NH4H2PO4, pH 3.9) and monitored by a β-RAM 6 in-line scintillation detector. A 1.0 mL/min elute was mixed with 0.5 or 2.5 mL/min monoflow scintillation liquid for ^33P or ^3H, respectively. Radiochromatography data were collected and analyzed using Laura software (v6.1.2.36).

human IPMK [2] = test: as above; format: biochemical; conditions: for selectivity for IPMK over IP6K1: from IC50 values; for IP6K1/IPMK: ratio of IP6K1 IC50 to IPMK IC50
Protocol: as §1, §2

human IP6K1 = molecular target: T2, human IP6K1 (Homo sapiens, UniProt Q92551); test: IP6K kinase activity assay (enzyme-coupled, malachite green Pi release); format: biochemical; conditions: 100 nM IP6K1, 25 μM InsP6, 500 μM ATP, 37 °C; mean with standard error, n = 3
T2 construct: made in house
T2 sequence (Q92551 whole entry): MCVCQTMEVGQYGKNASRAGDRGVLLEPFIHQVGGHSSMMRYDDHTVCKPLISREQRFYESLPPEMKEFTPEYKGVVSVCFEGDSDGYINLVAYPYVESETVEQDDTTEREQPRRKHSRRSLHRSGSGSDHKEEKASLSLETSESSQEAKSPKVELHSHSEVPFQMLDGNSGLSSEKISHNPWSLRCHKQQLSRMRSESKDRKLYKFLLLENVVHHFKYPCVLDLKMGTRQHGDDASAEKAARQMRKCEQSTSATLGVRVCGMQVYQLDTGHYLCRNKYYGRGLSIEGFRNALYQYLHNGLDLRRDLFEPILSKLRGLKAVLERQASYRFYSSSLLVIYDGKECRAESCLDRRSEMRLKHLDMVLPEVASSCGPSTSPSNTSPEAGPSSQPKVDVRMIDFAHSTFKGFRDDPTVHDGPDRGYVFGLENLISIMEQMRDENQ
Protocol: as §1
An enzyme-coupled assay was used to measure IP6K activity. Enzyme activity was assayed at 37 °C in 50 μL of reaction mixtures containing 100 nM IP6K1, 5.0 μM human Dipp1, 20 mM HEPES (pH 7.2), 100 mM KCl, 3.5 mM MgCl2, 20 μM EDTA, 25 μM InsP6, and 500 μM ATP for 60–120 min. Pi release was determined with a malachite green colorimetric assay. Reactions were quenched by the addition of 100 μL of phosphate detection reagent (36:1 v/v of 2.6% sodium molybdate in 2.5 M HCl: 0.126% malachite green chloride). Phosphate (Pi) release was quantified from the absorbance at 620 nm by using appropriate standards.

IP3K-A = IP3K-A (Homo sapiens, UniProt P23677); test: IP3K kinase activity assay ([3H]-InsP3, HPLC); format: biochemical; conditions: 1.0 μM 1,4,5-InsP3, 1.0 mM ATP, 0.25 nM IP3K-A; standard error, n = 3
Sequence of IP3K-A (P23677 whole entry): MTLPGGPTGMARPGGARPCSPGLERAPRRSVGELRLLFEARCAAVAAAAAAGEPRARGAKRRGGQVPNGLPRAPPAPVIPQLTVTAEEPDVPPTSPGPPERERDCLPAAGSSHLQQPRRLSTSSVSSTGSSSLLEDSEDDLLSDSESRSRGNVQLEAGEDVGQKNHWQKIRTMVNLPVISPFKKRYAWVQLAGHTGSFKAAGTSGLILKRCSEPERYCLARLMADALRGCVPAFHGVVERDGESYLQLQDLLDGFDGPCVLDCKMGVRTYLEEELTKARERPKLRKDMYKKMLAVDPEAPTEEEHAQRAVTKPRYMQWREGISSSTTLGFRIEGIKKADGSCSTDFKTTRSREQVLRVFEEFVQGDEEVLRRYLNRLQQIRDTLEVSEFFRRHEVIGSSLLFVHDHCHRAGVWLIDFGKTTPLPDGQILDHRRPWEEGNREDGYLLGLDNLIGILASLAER
Protocol: as §1
Each reaction contained 1.0 μM [^3H]-1,4,5-InsP3 (approximately 30,000 dpm; American Radiolabeled Chemicals, Inc., ART 0270) in a 100 μL incubation containing 20 mM HEPES (pH 7.2), 100 mM KCl, 3.5 mM MgCl2, 20 μM EDTA, 1.0 mM ATP, 1.0 μM 1,4,5-InsP3, plus test compound in DMSO (or vehicle control), and 0.25 nM IP3K-A. Reactions were quenched after 60 min by the addition of 2 volumes of 0.2 M NH4H2PO4, pH 3.9 and 20 mM EDTA and stored at 27 °C. Assays were analyzed by HPLC, using a PartiSphere SAX 120 Å, 5 μm, 4.6 × 125 mm HPLC column with a 250 μL injection volume. The elution gradient was generated by mixing Buffer A (1 mm Na2EDTA) with Buffer B (Buffer A plus 2.5 M NH4H2PO4, pH 3.9) and monitored by a β-RAM 6 in-line scintillation detector. A 1.0 mL/min elute was mixed with 0.5 or 2.5 mL/min monoflow scintillation liquid for ^33P or ^3H, respectively. Radiochromatography data were collected and analyzed using Laura software (v6.1.2.36).

human IPMK [3] = molecular target: T1, human IPMK; test: Isothermal titration calorimetry (ITC); format: binding; conditions: 15 μM IPMK in cell, 150 μM inhibitor in syringe, 25 °C, pH 7.2
Protocol: Isothermal calorimetry experiments were performed using a MicroCal PEAQ-ITC (Malvern Panalytical) with 15 μM recombinant human IPMK in the sample cell and 150 μM inhibitor 1 in the syringe, each of which was maintained at 25 °C in buffer containing 20 mM Tris-HCl, pH 7.2, 150 mM KCl, 0.05 mM EDTA, and 0.8 mM MgCl2. The sample cell (volume = 204 μL) and the syringe were cleaned before each run. Thermograms were constructed from 20 injections, each of which involved 2.0 μL of ligand delivered for 4.0 s, with an equilibration time of 150–300 s between each injection. The stirring speed was set to 750 rpm. Data were fitted to a single binding site model using the analysis software provided by the manufacturer, as supported by X-ray crystallography. At least three runs were performed.

[4] = parameters: method as in recent work from another group (number not given); conditions: mice, intraperitoneal injection; ref recent work from another group (number not given); cited from earlier work
[5] = system: human U251-MG glioblastoma cells; parameters: method as in other studies (number not given); conditions: ref other studies (number not given); cited from earlier work

Cc1cc(C)cc(-c2onc3ccc(/C=C/C(=O)O)cc23)c1 [Compound 1]
IC50 (human IPMK [1]): 12.8 ± 2 nM
selectivity for IPMK over IP6K1 (human IPMK [2]): approximately 10 fold
IP6K1/IPMK (human IPMK [2]): 11.4
IC50 (human IP6K1): 146 ± 23 nM
IC50 (IP3K-A): 8000 nM
Kd (human IPMK [3]): 11 nM

Cc1cc(C)cc(-c2onc3ccc([C@H]4C[C@@H]4C(=O)O)cc23)c1 [Compound 2]
IC50 (human IPMK [1]): 8.1 ± 2 nM
IP6K1/IPMK (human IPMK [2]): 5.6
IC50 (human IP6K1): 45 ± 7 nM

Cc1cc(C)cc(-c2onc3ccc(C(=O)O)cc23)c1 [Compound 3]
IC50 (human IPMK [1]): 29 ± 5 nM
IP6K1/IPMK (human IPMK [2]): 3

Cc1cc(C)cc(-c2onc3ccc(-c4nnn[nH]4)cc23)c1 [Compound 4]
IC50 (human IPMK [1]): 1.9 ± 0.2 nM
IP6K1/IPMK (human IPMK [2]): 13
IC50 (human IP6K1): 24 ± 6 nM

c1ccc(-c2onc3ccc(-c4nnn[nH]4)cc23)cc1 [Compound 6]
IC50 (human IPMK [1]): 3.8 ± 0.4 nM
selectivity for IPMK over IP6K1 (human IPMK [2]): 10 fold
IP6K1/IPMK (human IPMK [2]): 10
IC50 (human IP6K1): 38 ± 8 nM

FC(F)(F)c1ccc(-c2onc3ccc(-c4nnn[nH]4)cc23)cc1 [Compound 7]
IC50 (human IPMK [1]): 2.5 ± 0.3 nM
IP6K1/IPMK (human IPMK [2]): 9.2

FC(F)(F)Oc1ccc(-c2onc3ccc(-c4nnn[nH]4)cc23)cc1 [Compound 8]
IC50 (human IPMK [1]): 3.3 ± 0.4 nM
IP6K1/IPMK (human IPMK [2]): 13
IC50 (human IP6K1): 59 ± 14 nM

c1ccc(Oc2ccc(-c3onc4ccc(-c5nnn[nH]5)cc34)cc2)cc1 [Compound 9]
IC50 (human IPMK [1]): 11 ± 2 nM
IP6K1/IPMK (human IPMK [2]): 115
IC50 (human IP6K1): 1270 nM and 1300 nM

O=C(Nc1ccc(-c2onc3ccc(-c4nnn[nH]4)cc23)cc1)C1CC1 [Compound 10]
IC50 (human IPMK [1]): 3.5 ± 0.4 nM
IP6K1/IPMK (human IPMK [2]): 10
IC50 (human IP6K1): 35.8 nM and 36 nM

O=C(Nc1cccc(-c2onc3ccc(-c4nnn[nH]4)cc23)c1)C1CC1 [Compound 11]
IC50 (human IPMK [1]): 0.99 nM and 1 nM
selectivity for IPMK over IP6K1 (human IPMK [2]): 50 fold
IP6K1/IPMK (human IPMK [2]): 52
IC50 (human IP6K1): 52 nM and 51.8 nM

c1cc(OC2CCNCC2)cc(-c2onc3ccc(-c4nnn[nH]4)cc23)c1 [Compound 12]
IC50 (human IPMK [1]): 3.4 ± 0.5 nM
IP6K1/IPMK (human IPMK [2]): 8.8

Clc1cnc(Oc2cccc(-c3onc4ccc(-c5nnn[nH]5)cc34)c2)c(Cl)c1 [Compound 13]
IC50 (human IPMK [1]): 9.5 ± 2 nM
IP6K1/IPMK (human IPMK [2]): 1.9
IC50 (human IP6K1): 19 ± 4 nM

c1cc(-c2onc3ccc(-c4nnn[nH]4)cc23)cc(C2CCN(C3CCC3)CC2)c1 [Compound 14]
IC50 (human IPMK [1]): 3 nM and 2.8 nM
clearance, half-life, and volume of distribution [4]: reasonable
cellular growth [5]: decrease
inositol phosphate metabolism [5]: decrease

O=C(Nc1cccc(-c2onc3ccc(-c4nnn[nH]4)cc23)c1)C1CCCC1 [Compound 15]
IC50 (human IPMK [1]): 1.1 nM and 1.13 nM
IP6K1/IPMK (human IPMK [2]): 36
IC50 (human IP6K1): 40.1 ± 4 nM
